# “Also recorded” adds a separate entry of the source.
# Key:
# [1] = test system: NK1R; experiment: Neuropeptide response in bladders of CY-17 infected Nlrp3^−/− mice treated with NK1R antagonist (immunohistochemistry, qRT-PCR); type: in vivo; details: for Nk1r expression (qRT-PCR) / Ppt-1 expression (qRT-PCR): 1 mg/kg i.p.
# Source text: Mice were bred and housed in the specific pathogen-free MIG animal facilities (Lund, Sweden) with free access to food and water. Female C57BL/6 mice or Il1b^−/−, Nlrp3^−/−, Asc^−/− mice were used for experiments at 9-15 weeks of age.
# Tissues were embedded in O.C.T. compound (VWR) and 7-μm-thick fresh cryosections were mounted on positively charged microscope slides (Superfrost/Plus; Thermo Fisher Scientific) Sections were permeabilized (0.25% Triton X-100, 5% FBS), blocked (5% FBS) and stained: rabbit anti-NK1R (1:50, SC-15323, SantaCruz), rabbit anti-substance p (1:100, ORB11399, Biorbyt), rabbit anti-orexin receptor 2 (1:300, AB104701, Abcam), rabbit anti-GALR2 (1:50, AB136264, Abcam) or rabbit anti-TAS2R43 (1:100, AB65513, Abcam). Antibodies were appropriately labeled using goat anti-rabbit secondary antibodies conjugated to Alexa 488 (1:200 in 0.025% Triton X-100, 5% FBS) for 1 h in RT before nuclear counterstaining using Draq5 (1:1000, Abcam). Sections were imaged by laser scanning confocal microscopy (MSM510 META confocal microscope, Carl Zeiss) or by fluorescence microscopy (AX60, Olympus Optical).
# Complementary DNA was reverse-transcribed from 0.2-1 μg of mice total RNA using SuperScript™ III First-Strand Synthesis System for RT-PCR (Invitrogen), and quantified in real time using primer pairs against Mus musculus Nk1r, Ppt-1^37 and Galr2 and QuantiTect® SYBR® Green PCR kits (Qiagen) on a Rotor Gene Q (Qiagen).
# qRT-PCR reactions were run in technical duplicates and gene expression was analyzed based on ΔΔCT comparison to Mus musculus GAPDH.
# The severity of acute cystitis after 24 hours or seven days was examined and neuropeptide expression and disease severity quantified by immunohistochemistry and qRT-PCR of whole bladder RNA extracts, using primers specific for NK1R, Ppt-1 or Galr2 as described above.
# [2] = test system: differentiated SH-SY5Y cells; experiment: Pre-treatment of differentiated SH-SY5Y nerve cells before CY17 infection (confocal imaging, ELISA); type: cell-based, human
# Procedure: Cells were grown on 8-well chamber slides (6×10^4 cells/well, Thermo Fischer Scientific) or in 6-well plates (6×10^5 cells/well) for 16 hours in media supplemented with 10% FBS. Media were removed, and cells were washed with PBS before adding medium without FBS. Cells were infected with bacteria diluted to appropriate concentration in PBS and incubated for one or four hours at 37° C. with 5% CO2.
# The two cell types were first infected with increasing concentrations of the acute cystitis strain E. coli CY-17 (10^2-10^4 cfu/ml) for 1 to 4 hours. NK1R and SP expression was used as a read out of the cellular response. […] A concentration of 10^4 cfu/ml of CY-17 and four hours of infection was chosen for further studies. Under these conditions, there was little cytotoxicity. To further characterize the neuropeptide response to bladder infection, the in vitro analysis was extended to include GALR2, OrxR2 and TAS2R43. Confocal microscopy was used in this instance. Infected cells were fixed (3.7% formaldehyde, 15 min), permeabilized (0.25% triton X-100, 5% FBS, 10 min), blocked (5% FBS, 1 h at RT), incubated overnight with primary antibodies in 5% FBS: Anti-NK1R (1:100, SC-15323, Santa Cruz), anti-SP, (1:200, ORB11399, Biorbyt), anti-orexin receptor 2, (1:200, AB10470, Abcam), anti-TAS2R43, (1:200, AB65513, Abcam), and anti-GALR2 antibodies (1:100, AB136264, Abcam). Appropriate fluorescently labeled secondary antibodies were used (Alexa Fluor® 488 goat anti-rabbit IgG, A-11034; Life Technologies, (1 hour at Room Temperature). After nuclear staining (DRAQ5, 1:1000, Abcam) slides were mounted (Fluoromount, Sigma-Aldrich), imaged by laser scanning confocal microscopy (MSM510 META confocal microscope, Carl Zeiss) and quantified by ImageJ software 1.46r (NIH).
# HTB-9 cells and differentiated SH-SY5Y cells were pre-treated with SR140333, or IL-1RA Anakinra (500 ng/ml) for 30 minutes before infection with CY17 (10^4 cfu/ml, four hours), or treatment with exogenous recombinant SP (R&D System) or IL-1β (Abnova) (20 ng/ml, four hours). After infection, cells were infected with CY17 and the NK1R, SP and IL-1β response was quantified by confocal imaging. IL-1β- and SP secretion was quantified by ELISA, in culture supernatants. In nerve- and bladder epithelial cells, SR140333 inhibited the SP/NK1R response to infection, consistent with an autocrine activation loop involving SP/NK1R as shown by confocal imaging (FIG. 10a). […] SP activated IL-1β expression and secretion in bladder epithelial cells but had no effect on IL-1β on nerve cells. (*=P<0.05, **=P<0.01, ***=P<0.001, Two-tailed t-test for confocal imaging data and Mann-Whitney U-test for ELISAs.
# Furthermore, to examine if the effects of NK1R inhibition can be generalized, we used two additional NK1R antagonists (CP99994 and L703.303). […]
# [3] = Nlrp3^−/− mice, CY-17 infection, SR140333 i.p. 1 mg/kg, vs untreated infected mice, 1 mg/kg
smiles,measurement,setting,value
"CC(C)Oc1cccc(CC(=O)N2CCC[C@](CC[N+]34CCC(c5ccccc5)(CC3)CC4)(c3ccc(Cl)c(Cl)c3)C2)c1.[Cl-] [SR140333, 1-[2-[(3S)-3-(3,4-Dichlorophenyl)-1-[2-[3-(1-methylethoxy)phenyl]acetyl]-3-piperidinyl]ethyl]-4-phenyl-1-azoniabicyclo[2.2.2]octane chloride]",mucosal NK1R response to infection (NK1R staining),[1]; [3],reduced; also recorded: Inhibition
same,mucosal SP response to infection (SP staining),[1]; [3],reduced; also recorded: Attenuated
same,Galr2 expression (qRT-PCR),"[1]; either treatment (prophylactic or post-infection), p=0.19 and p=0.63",no significant effect; also recorded: not altered
same,GALR2 staining,"[1]; infected mice, n=4 mice per condition",does not effect
same,Nk1r expression (qRT-PCR),"[1]; post-infection treatment, p<0.01",reduced
same,Ppt-1 expression (qRT-PCR),"[1]; post-infection treatment, p<0.01, 1 mg/kg",affected; also recorded: Inhibition
same,Nk1r expression (qRT-PCR),"[1]; prophylactic treatment (pretreatment), p<0.05",reduced
same,Ppt-1 expression (qRT-PCR),"[1]; prophylaxis (pretreatment), p=0.06",less efficient
same,SP/NK1R response to infection (confocal imaging),"[2]; pre-treated 30 minutes before CY17 (10^4 cfu/ml, four hours)",inhibited
same,"SP secretion (ELISA, culture supernatants)",[2]; pre-treated before CY17 infection,decrease

# Reference: patent US20250082625A1, “NOVEL THERAPY” (priority 2016, published 2025)
